Assay [1] addresses T1, HiBit-BRG1 fusion protein (Homo sapiens, UniProt P51532).
T1 construct: expressed in transfected cells
As to the kind of experiment: HiBiT-BRG1 cell-based degradation assay (Nano-Glo HiBiT Lytic Detection, 24 h). The settings on record: HeLa cells expressing HiBit-BRG1 and LgBit; for DC50: read-out: BRG1 HiBit Degradation IC50; for Dmax: HeLa, top dose 30 μM, read-out: BRG1 HiBit Degradation Maximum measured. The method, boiled down: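 Stable HeLa line expressing HiBiT-BRG1 and LgBiT, seeded at 5000 cells/well; luminescence read after lytic Nano-Glo HiBiT reagent and 10 min shaking at RT. % degradation normalised between DMSO (high control) and 2 μM reference BRM/BRG1 degrader (low control).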
(In general: HiBiT is a short tag that completes a luciferase, so light tracks the accessible tagged protein.)

In the next assay the target is T2, HiBit-BRM fusion protein (Homo sapiens, UniProt P51531).
T2 construct: expressed in transfected cells
As to the kind of experiment: HiBiT-BRM cell-based degradation assay (Nano-Glo HiBiT Lytic Detection, 24 h). Particulars: HeLa cells expressing HiBiT-BRM; for DC50: read-out: BRM HiBit Degradation IC50; for BRM HiBit Degradation Maximum measured: top dose 30 μM. The method, boiled down: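 Luminescence from reconstituted NanoBiT luciferase in lysed HeLa HiBiT-BRM cells served as the measure of remaining BRM after 24 h treatment. Compounds were tested from 30 μM final downward in 3-fold steps. DMSO and 2 μM of a standard BRM/BRG1 degrader defined the scale limits.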

T1 sequence (P51532 whole entry, the tested form may be a part): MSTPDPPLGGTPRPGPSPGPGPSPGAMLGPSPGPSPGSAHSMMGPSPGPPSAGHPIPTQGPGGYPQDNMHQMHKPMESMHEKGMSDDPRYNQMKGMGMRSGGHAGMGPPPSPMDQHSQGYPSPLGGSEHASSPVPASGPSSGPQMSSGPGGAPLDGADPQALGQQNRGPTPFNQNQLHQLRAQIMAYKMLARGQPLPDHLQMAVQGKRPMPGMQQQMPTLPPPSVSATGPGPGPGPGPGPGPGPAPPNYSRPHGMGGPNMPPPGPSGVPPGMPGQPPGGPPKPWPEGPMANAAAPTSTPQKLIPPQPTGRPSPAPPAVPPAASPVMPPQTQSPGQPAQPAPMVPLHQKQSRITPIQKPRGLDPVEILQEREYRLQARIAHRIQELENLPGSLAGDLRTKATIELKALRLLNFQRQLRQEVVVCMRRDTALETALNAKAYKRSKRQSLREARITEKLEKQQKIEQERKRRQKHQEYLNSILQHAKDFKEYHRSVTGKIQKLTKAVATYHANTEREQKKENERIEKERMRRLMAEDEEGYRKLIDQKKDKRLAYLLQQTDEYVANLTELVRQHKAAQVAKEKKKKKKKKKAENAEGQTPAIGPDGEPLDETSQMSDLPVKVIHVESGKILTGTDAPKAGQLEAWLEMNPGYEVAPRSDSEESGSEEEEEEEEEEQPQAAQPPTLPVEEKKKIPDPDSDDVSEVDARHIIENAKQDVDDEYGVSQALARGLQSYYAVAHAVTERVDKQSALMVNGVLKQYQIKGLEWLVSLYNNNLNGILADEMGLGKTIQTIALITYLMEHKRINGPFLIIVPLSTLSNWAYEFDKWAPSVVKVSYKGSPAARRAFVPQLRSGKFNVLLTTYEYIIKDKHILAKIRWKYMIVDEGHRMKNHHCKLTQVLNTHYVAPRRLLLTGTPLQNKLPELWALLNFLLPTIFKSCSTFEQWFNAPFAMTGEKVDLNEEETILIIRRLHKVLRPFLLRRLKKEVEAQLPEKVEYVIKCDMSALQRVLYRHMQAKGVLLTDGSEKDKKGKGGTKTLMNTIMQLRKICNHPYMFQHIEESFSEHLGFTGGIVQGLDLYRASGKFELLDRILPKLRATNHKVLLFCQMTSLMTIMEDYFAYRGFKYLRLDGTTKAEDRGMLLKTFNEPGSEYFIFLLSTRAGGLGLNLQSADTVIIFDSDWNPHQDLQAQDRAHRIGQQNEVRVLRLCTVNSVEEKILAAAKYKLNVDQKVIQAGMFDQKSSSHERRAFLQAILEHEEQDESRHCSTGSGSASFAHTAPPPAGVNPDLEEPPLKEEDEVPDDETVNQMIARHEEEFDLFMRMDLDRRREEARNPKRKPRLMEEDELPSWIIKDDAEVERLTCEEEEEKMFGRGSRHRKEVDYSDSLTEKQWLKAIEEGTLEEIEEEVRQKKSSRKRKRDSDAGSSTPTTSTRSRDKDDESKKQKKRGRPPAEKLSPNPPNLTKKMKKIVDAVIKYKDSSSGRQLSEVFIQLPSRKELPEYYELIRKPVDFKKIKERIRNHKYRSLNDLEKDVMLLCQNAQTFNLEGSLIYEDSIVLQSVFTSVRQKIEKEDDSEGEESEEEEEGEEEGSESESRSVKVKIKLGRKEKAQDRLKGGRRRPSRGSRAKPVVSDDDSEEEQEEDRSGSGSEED
T2 sequence (P51531 whole entry, the tested form may be a part): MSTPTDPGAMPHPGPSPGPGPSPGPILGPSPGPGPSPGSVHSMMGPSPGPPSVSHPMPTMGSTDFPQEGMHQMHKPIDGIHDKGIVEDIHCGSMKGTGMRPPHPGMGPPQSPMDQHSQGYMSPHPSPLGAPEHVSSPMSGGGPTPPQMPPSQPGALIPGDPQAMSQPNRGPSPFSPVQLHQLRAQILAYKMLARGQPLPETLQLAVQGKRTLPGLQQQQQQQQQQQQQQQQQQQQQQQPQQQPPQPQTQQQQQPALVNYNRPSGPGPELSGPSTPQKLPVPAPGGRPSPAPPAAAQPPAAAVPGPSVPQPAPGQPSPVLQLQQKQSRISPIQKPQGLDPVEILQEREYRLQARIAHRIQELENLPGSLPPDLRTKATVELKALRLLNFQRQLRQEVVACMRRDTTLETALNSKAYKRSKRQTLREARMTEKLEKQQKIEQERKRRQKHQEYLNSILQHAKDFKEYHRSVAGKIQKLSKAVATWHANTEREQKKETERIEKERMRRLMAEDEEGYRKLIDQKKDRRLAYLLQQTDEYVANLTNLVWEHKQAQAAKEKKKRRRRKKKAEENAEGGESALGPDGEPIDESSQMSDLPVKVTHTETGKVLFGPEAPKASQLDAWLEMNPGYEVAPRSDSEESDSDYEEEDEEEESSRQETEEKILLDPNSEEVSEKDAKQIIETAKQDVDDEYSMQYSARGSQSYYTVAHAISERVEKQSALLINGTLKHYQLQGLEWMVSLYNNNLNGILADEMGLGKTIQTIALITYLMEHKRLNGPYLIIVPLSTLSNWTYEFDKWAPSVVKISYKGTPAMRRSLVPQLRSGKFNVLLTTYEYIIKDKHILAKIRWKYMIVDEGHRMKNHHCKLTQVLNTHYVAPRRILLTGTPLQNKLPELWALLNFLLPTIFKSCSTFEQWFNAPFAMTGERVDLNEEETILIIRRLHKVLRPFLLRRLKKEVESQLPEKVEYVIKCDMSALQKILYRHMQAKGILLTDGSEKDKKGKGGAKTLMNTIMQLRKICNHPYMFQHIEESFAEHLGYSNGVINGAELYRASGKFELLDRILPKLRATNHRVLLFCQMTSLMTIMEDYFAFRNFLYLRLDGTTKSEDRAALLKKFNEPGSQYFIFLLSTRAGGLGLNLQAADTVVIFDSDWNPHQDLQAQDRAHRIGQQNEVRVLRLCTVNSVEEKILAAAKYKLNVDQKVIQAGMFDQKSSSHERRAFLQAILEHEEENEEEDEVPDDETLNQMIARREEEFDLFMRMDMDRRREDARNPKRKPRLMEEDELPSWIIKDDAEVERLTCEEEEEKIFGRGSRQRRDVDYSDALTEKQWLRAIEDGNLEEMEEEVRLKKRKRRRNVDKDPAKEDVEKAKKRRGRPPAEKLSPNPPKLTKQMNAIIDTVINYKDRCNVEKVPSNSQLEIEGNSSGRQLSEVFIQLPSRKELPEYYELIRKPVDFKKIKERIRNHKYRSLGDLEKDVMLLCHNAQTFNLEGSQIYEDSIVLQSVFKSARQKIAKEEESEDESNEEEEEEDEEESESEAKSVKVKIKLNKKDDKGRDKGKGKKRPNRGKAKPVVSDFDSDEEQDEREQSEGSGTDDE

Turning to `CS(=O)(=O)n1ccc(C(=O)N[C@@H](CCOCCCC(=O)NCCCCCCNc2ccc3c(c2)C(=O)N(C2CCC(=O)NC2=O)C3=O)C(=O)Nc2nc(-c3ccccc3)cs2)c1` (stereo partly drawn) [Compound 283, (2S)-4-[3-[(6-[[2-(2,6-dioxopiperidin-3-yl)-1,3-dioxoisoindol-5-yl]amino]hexyl)carbamoyl]propoxy]-2-[(1-methanesulfonylpyrrol-3-yl)formamido]-N-(4-phenyl-1,3-thiazol-2-yl)butanamide], in assay [1], the DC50 was above 10 µM and the Dmax is below 50%. Further, at HiBit-BRM fusion protein, the DC50 is above 10 µM and the “BRM HiBit Degradation Maximum measured” value is on record as “C (‘C’ = Maximum degradation <50%)”.

In the case of `CS(=O)(=O)n1ccc(C(=O)N[C@@H](CCCCNC(=O)C2CC2CNC(=O)COc2cccc3c2C(=O)N(C2CCC(=O)NC2=O)C3=O)C(=O)Nc2nc(-c3ccccc3)cs2)c1` (stereo partly drawn) [Compound 284, (2S)-6-([2-[(2-[[2-(2,6-dioxopiperidin-3-yl)-1,3-dioxoisoindol-4-yl]oxy]acetamido)methyl]cyclopropyl]formamido)-2-[(1-methanesulfonylpyrrol-3-yl)formamido]-N-(4-phenyl-1,3-thiazol-2-yl)hexanamide], in assay [1], the DC50 was above 10 µM and the Dmax is below 50%. For the same molecule, on HiBit-BRM fusion protein, the DC50 is above 10 µM and the “BRM HiBit Degradation Maximum measured” value is “C (‘C’ = Maximum degradation <50%)”.

`CS(=O)(=O)n1ccc(C(=O)N[C@@H](CCOCCCC(=O)NCCOc2cccc(OCCNc3ccc4c(c3)C(=O)N(C3CCC(=O)NC3=O)C4=O)c2)C(=O)Nc2nc(-c3ccccc3)cs2)c1` (stereo partly drawn) [Compound 285, (2S)-4-[3-([2-[3-(2-[[2-(2,6-dioxopiperidin-3-yl)-1,3-dioxoisoindol-5-yl]amino]ethoxy)phenoxy]ethyl]carbamoyl)propoxy]-2-[(1-methanesulfonylpyrrol-3-yl)formamido]-N-(4-phenyl-1,3-thiazol-2-yl)butanamide]: in assay [1], the DC50 was above 10 µM and the Dmax is below 50%. At HiBit-BRM fusion protein, the DC50 was above 10 µM and the “BRM HiBit Degradation Maximum measured” value is reported as “C (‘C’ = Maximum degradation <50%)”.

Turning to `CS(=O)(=O)n1ccc(C(=O)N[C@@H](CCOCCCC(=O)NCCNc2ccc3c(c2)C(=O)N(C2CCC(=O)NC2=O)C3=O)C(=O)Nc2nc(-c3ccccc3)cs2)c1` (stereo partly drawn) [Compound 286, (2S)-4-[3-[(2-[[2-(2,6-dioxopiperidin-3-yl)-1,3-dioxoisoindol-5-yl]amino]ethyl)carbamoyl]propoxy]-2-[(1-methanesulfonylpyrrol-3-yl)formamido]-N-(4-phenyl-1,3-thiazol-2-yl)butanamide], in assay [1], the DC50 was above 10 µM and the Dmax was below 50%. Besides, on HiBit-BRM fusion protein, the DC50 was above 10 µM and the “BRM HiBit Degradation Maximum measured” value was “C (‘C’ = Maximum degradation <50%)”.

For the molecule `CS(=O)(=O)n1ccc(C(=O)N[C@@H](CCOCCCC(=O)NCCCCCNc2ccc3c(c2)C(=O)N(C2CCC(=O)NC2=O)C3=O)C(=O)Nc2nc(-c3ccccc3)cs2)c1` (stereo partly drawn) [Compound 287, (2S)-4-[3-[(5-[[2-(2,6-dioxopiperidin-3-yl)-1,3-dioxoisoindol-5-yl]amino]pentyl)carbamoyl]propoxy]-2-[(1-methanesulfonylpyrrol-3-yl)formamido]-N-(4-phenyl-1,3-thiazol-2-yl)butanamide], in assay [1], the DC50 was above 10 µM and the Dmax was below 50%. Further, on HiBit-BRM fusion protein, the DC50 is above 10 µM and the “BRM HiBit Degradation Maximum measured” value is “C (‘C’ = Maximum degradation <50%)”.

In the case of `CS(=O)(=O)n1ccc(C(=O)N[C@@H](CCCCNC(=O)CCOCCOCCOc2cccc3c2C(=O)N(C2CCC(=O)NC2=O)C3=O)C(=O)Nc2nc(-c3ccccc3)cs2)c1` (stereo partly drawn) [Compound 288, (2S)-6-[3-[2-(2-[[2-(2,6-dioxopiperidin-3-yl)-1,3-dioxoisoindol-4-yl]oxy]ethoxy)ethoxy]propanamido]-2-[(1-methanesulfonylpyrrol-3-yl)formamido]-N-(4-phenyl-1,3-thiazol-2-yl)hexanamide], in assay [1], the DC50 is above 10 µM and the Dmax was below 50%. In addition, at HiBit-BRM fusion protein, the DC50 was above 10 µM and the “BRM HiBit Degradation Maximum measured” value is “C (‘C’ = Maximum degradation <50%)”.

Consider `CS(=O)(=O)n1ccc(C(=O)N[C@@H](CCCCNC(=O)CCCCCCCOc2cccc3c2C(=O)N(C2CCC(=O)NC2=O)C3=O)C(=O)Nc2nc(-c3ccccc3)cs2)c1` (stereo partly drawn) [Compound 289, 8-[[2-(2,6-dioxopiperidin-3-yl)-1,3-dioxoisoindol-4-yl]oxy]-N-[(5S)-5-[(1-methanesulfonylpyrrol-3-yl)formamido]-5-[(4-phenyl-1,3-thiazol-2-yl)carbamoyl]pentyl]octanamide], for which, in assay [1], the DC50 was above 10 µM and the Dmax was below 50%. At HiBit-BRM fusion protein, the DC50 is above 10 µM and the “BRM HiBit Degradation Maximum measured” value is “C (‘C’ = Maximum degradation <50%)”.

With `CS(=O)(=O)n1ccc(C(=O)N[C@@H](CCCCNC(=O)CCCCCCOc2cccc3c2C(=O)N(C2CCC(=O)NC2=O)C3=O)C(=O)Nc2nc(-c3ccccc3)cs2)c1` (stereo partly drawn) [Compound 290, 7-[[2-(2,6-dioxopiperidin-3-yl)-1,3-dioxoisoindol-4-yl]oxy]-N-[(5S)-5-[(1-methanesulfonylpyrrol-3-yl)formamido]-5-[(4-phenyl-1,3-thiazol-2-yl)carbamoyl]pentyl]heptanamide], in assay [1], the DC50 is above 10 µM and the Dmax was below 50%. In addition, at HiBit-BRM fusion protein, the DC50 is above 10 µM and the “BRM HiBit Degradation Maximum measured” value was “C (‘C’ = Maximum degradation <50%)”.

On to `CS(=O)(=O)n1ccc(C(=O)N[C@@H](CCCCNC(=O)CCOCCOCCOc2ccc3c(c2)C(=O)N(C2CCC(=O)NC2=O)C3=O)C(=O)Nc2nc(-c3ccccc3)cs2)c1` (stereo partly drawn) [Compound 291, (2S)-6-[3-[2-(2-[[2-(2,6-dioxopiperidin-3-yl)-1,3-dioxoisoindol-5-yl]oxy]ethoxy)ethoxy]propanamido]-2-[(1-methanesulfonylpyrrol-3-yl)formamido]-N-(4-phenyl-1,3-thiazol-2-yl)hexanamide], for which, in assay [1], the DC50 was above 10 µM and the Dmax is below 50%. Also, at HiBit-BRM fusion protein, the DC50 is above 10 µM and the “BRM HiBit Degradation Maximum measured” value was “C (‘C’ = Maximum degradation <50%)”.

In the case of `CS(=O)(=O)n1ccc(C(=O)N[C@@H](CCCCNC(=O)CCOCCOCCNc2ccc3c(c2)C(=O)N(C2CCC(=O)NC2=O)C3=O)C(=O)Nc2nc(-c3ccccc3)cs2)c1` (stereo partly drawn) [Compound 292, (2S)-6-[3-[2-(2-[[2-(2,6-dioxopiperidin-3-yl)-1,3-dioxoisoindol-5-yl]amino]ethoxy)ethoxy]propanamido]-2-[(1-methanesulfonylpyrrol-3-yl)formamido]-N-(4-phenyl-1,3-thiazol-2-yl)hexanamide], in assay [1], the DC50 is above 10 µM and the Dmax was below 50%. At HiBit-BRM fusion protein, the DC50 is above 10 µM and the “BRM HiBit Degradation Maximum measured” value is reported as “C (‘C’ = Maximum degradation <50%)”.

On to `CS(=O)(=O)n1ccc(C(=O)N[C@@H](CCCCNC(=O)CCN2CC3(C2)CN(c2ccc4c(c2)C(=O)N(C2CCC(=O)NC2=O)C4=O)C3)C(=O)Nc2nc(-c3ccccc3)cs2)c1` (stereo partly drawn) [Compound 294, (2S)-6-(3-[6-[2-(2,6-dioxopiperidin-3-yl)-1,3-dioxoisoindol-5-yl]-2,6-diazaspiro[3.3]heptan-2-yl]propanamido)-2-[(1-methanesulfonylpyrrol-3-yl)formamido]-N-(4-phenyl-1,3-thiazol-2-yl)hexanamide], for which, in assay [1], the DC50 was above 10 µM and the Dmax was below 50%. On HiBit-BRM fusion protein, the DC50 was above 10 µM and the “BRM HiBit Degradation Maximum measured” value is listed as “C (‘C’ = Maximum degradation <50%)”.

The record behind these values is patent US12662479B2 (Foghorn Therapeutics Inc., priority 2020, dated 2026).
